The NIST ThermoML archive (doi:10.1016/j.jct.2008.10.002)

Experiments:
[1] = molar heat capacity at constant pressure; xn = mol fraction of the nth substance listed; details: 101.3 kPa, Liquid, Small sample (50 mg) DSC
[2] = xn = mol fraction of the nth substance listed; details: 101.3 kPa, Liquid, Vibrating tube method
[3] = excess molar enthalpy (molar enthalpy of mixing); xn = mol fraction of the nth substance listed; details: 303.15 K, 101.3 kPa, Liquid

CCCCn1cc[n+](C)c1.COS(=O)(=O)[O-] [1-butyl-3-methylimidazolium methyl sulfate] + O
Details	mass density, [2] [kg/m3]	molar heat capacity at constant pressure, [1] [J/K/mol]
293.15 K, x1 = 0.0213	1041.7	84.8
293.15 K, x1 = 0.0489	1081	95.3
293.15 K, x1 = 0.0996	1123.8	112
293.15 K, x1 = 0.1975	1162.3	143.8
293.15 K, x1 = 0.2938	1180	175.2
293.15 K, x1 = 0.3948	1190.5	207.8
293.15 K, x1 = 0.4809	1196.3	235.7
293.15 K, x1 = 0.5724	1200.7	265.9
293.15 K, x1 = 0.6552	1203.6	293.4
293.15 K, x1 = 0.8002	1207.3	343.5
293.15 K, x1 = 0.8199	1207.7	–
293.15 K, x1 = 0.9554	1210	397.9
298.15 K, x1 = 0.0213	1039.7	84.8
298.15 K, x1 = 0.0489	1078.3	95.6
298.15 K, x1 = 0.0996	1120.5	112.6
298.15 K, x1 = 0.1975	1158.8	144.9
298.15 K, x1 = 0.2938	1176.5	176.5
298.15 K, x1 = 0.3948	1187	209.3
298.15 K, x1 = 0.4809	1192.9	237.3
298.15 K, x1 = 0.5724	1197.3	267.7
298.15 K, x1 = 0.6552	1200.3	295.3
298.15 K, x1 = 0.8002	1204	345.5
298.15 K, x1 = 0.8199	1204.3	–
298.15 K, x1 = 0.9554	1206.7	400.1
303.15 K, x1 = 0.0213	1037.5	84.9
303.15 K, x1 = 0.0489	1075.4	96
303.15 K, x1 = 0.0996	1117.1	113.3
303.15 K, x1 = 0.1975	1155.2	146.1
303.15 K, x1 = 0.2938	1173	177.8
303.15 K, x1 = 0.3948	1183.6	210.8
303.15 K, x1 = 0.4809	1189.5	239
303.15 K, x1 = 0.5724	1193.9	269.5
303.15 K, x1 = 0.6552	1196.9	297.3
303.15 K, x1 = 0.8002	1200.7	347.6
303.15 K, x1 = 0.8199	1201	–
303.15 K, x1 = 0.9554	1203.4	402.3
308.15 K, x1 = 0.0213	1035.2	84.9
308.15 K, x1 = 0.0489	1072.4	96.2
308.15 K, x1 = 0.0996	1113.6	113.9
308.15 K, x1 = 0.1975	1151.7	147.1
308.15 K, x1 = 0.2938	1169.5	179
308.15 K, x1 = 0.3948	1180.2	212.2
308.15 K, x1 = 0.4809	1186.1	240.5
308.15 K, x1 = 0.5724	1190.6	271.2
308.15 K, x1 = 0.6552	1193.6	299.2
308.15 K, x1 = 0.8002	1197.4	349.7
308.15 K, x1 = 0.8199	1197.7	–
308.15 K, x1 = 0.9554	1200.1	404.5
313.15 K, x1 = 0.0213	1032.7	84.9
313.15 K, x1 = 0.0489	1069.3	96.5
313.15 K, x1 = 0.0996	1110.1	114.5
313.15 K, x1 = 0.1975	1148	148.1
313.15 K, x1 = 0.2938	1166	180.3
313.15 K, x1 = 0.3948	1176.7	213.6
313.15 K, x1 = 0.4809	1182.7	242.1
313.15 K, x1 = 0.5724	1187.2	272.9
313.15 K, x1 = 0.6552	1190.3	301.2
313.15 K, x1 = 0.8002	1194.1	351.7
313.15 K, x1 = 0.8199	1194.4	–
313.15 K, x1 = 0.9554	1196.8	406.7
318.15 K, x1 = 0.0213	1030.1	85.1
318.15 K, x1 = 0.0489	1066.2	96.8
318.15 K, x1 = 0.0996	1106.6	115.2
318.15 K, x1 = 0.1975	1144.4	149.1
318.15 K, x1 = 0.2938	1162.5	181.6
318.15 K, x1 = 0.3948	1173.3	215
318.15 K, x1 = 0.4809	1179.3	243.7
318.15 K, x1 = 0.5724	1183.9	274.6
318.15 K, x1 = 0.6552	1186.9	303.1
318.15 K, x1 = 0.8002	1190.8	353.8
318.15 K, x1 = 0.8199	1191.1	–
318.15 K, x1 = 0.9554	1193.6	408.9

[3]
Details	excess molar enthalpy [kcal/mol]
x1 = 0.0506	-0.0676
x1 = 0.1003	-0.0966
x1 = 0.1461	-0.115
x1 = 0.2018	-0.125
x1 = 0.299	-0.128
x1 = 0.4021	-0.117
x1 = 0.5447	-0.0987
x1 = 0.6795	-0.0755
x1 = 0.8434	-0.0413
